In brackets after ≈: the same amount, converted by molar mass. Entries after “also recorded” stand apart in the source; their conditions may differ. Structures can show the parent of a compound that is named as a salt. Where two headings read alike, the source gives them in different places. Values belong to the compound of their own block, whether it stands above or below them.
Columns and labels:
Assay type in all cases: physicochemical
[1] = Storage stability of the crystalline forms (25° C./60% RH, 40° C./75% RH); details: for appearance after exposure / solid-form stability (XRPD): one-week exposure to 75% RH at 40° C.; for XRPD of the samples after exposure vs t=0: 25° C./60% RH and 40° C./75% RH, closed and open vial, 1, 2 and 4 weeks
Experimental: Example 8. Storage Stability of the Crystalline Forms
The forms were evaluated with a closed vial and an open vial.
Crystalline Hydrogen Sulfate Form B. […] Approximately 30 mg of crystalline hydrogen sulfate form B was weighed into a 4 mL vial and covered with a KIMWIPE. […]
Crystalline Sulfate Form A. […] Approximately 30 mg of crystalline sulfate form A was weighed into a 4 mL vial and covered with a KIMWIPE. […]

[2] = Dynamic Vapor Sorption analysis (DVS), hygroscopicity; details: 2-95% RH
[3] = as above; details: for Hygroscopicity by DVS: 25° C./0-90% RH change; for form change by XRPD after DVS: after 0-90% RH; for Hygroscopicity: weight increase at 80% RH, 25° C.; for moisture uptake: 0-90% RH change by DVS
Experimental: Dynamic Vapor Sorption Analysis (DVS)
• Instrument: DVS Intrinsic, Surface Measurement Systems • Parameters: 25° C., 0-90-0% RH for 2 cycles

[4] = Water solubility of free form solid states at room temperature; details: for XRPD Pattern (solubility measured on); form in water: suspended in water, XRPD after 1 day, PLM after 5 days; for form after suspension in water (microscopic images): five days, room temperature
Experimental: Example 4. Water Solubility of Free Form Solid States at Room Temperature
The samples were shaken at 25° C., 200 rpm. XRPD (taken after the crystalline forms were mixed with water, and after 1 day suspended in water) and PLM (after 5 days) were recorded. […] Table 13 summarizes the water solubility of crystalline forms C and F.

[5] = Form stability of crystalline form F in 0.5% methylcellulose (400 cps)/0.02% sodium lauryl sulfate
Experimental: The samples were evaluated at designated time points and PLM images were recorded up to 7 days.

[6] = Form stability of crystalline hydrogen sulfate forms A and B in buffered 0.5% methylcellulose/0.02% sodium lauryl sulfate
Experimental: Example 7. Form Stability of Crystalline Hydrogen Sulfate Forms A and B in Buffered 0.5% Methylcellulose (v/v) (400 cps)/0.02% Sodium Lauryl Sulfate (v/v)
Crystalline hydrogen sulfate form A was used for form stability studies in 0.5% methylcellulose (v/v) (400 cps)/0.02% sodium lauryl sulfate (v/v) with citrate buffer (pH 4.5) with a concentration of 0.1 mg/mL, 0.2 mg/mL, 0.5 mg/mL and 1 mg/mL with and without stirring. HPLC purity was obtained for the solutions at 3 and 7 days.
An additional sample of crystalline hydrogen sulfate form A in the same buffered formulation was prepared with a concentration of 1 mg/ml and stirred at 500 rpm at room temperature. The sample was monitored every hour for form assessment. The solution was nearly clear at the first 3 hours.

[7] = as above; details: 10 mg in 10 mL MC/SLS with (pH 4.5) and without sodium citrate buffer, 500 rpm, room temperature, overnight
[8] = 25° C./60% RH, t = 4 weeks, open vial
[9] = 25° C./60% RH, t = 7 d, open vial
[10] = 25° C./60% RH, t = 14 d, open vial
[11] = 40° C./75% RH, t = 4 weeks, closed vial
[12] = 40° C./75% RH, t = 4 weeks, open vial
[13] = 40° C./75% RH, t = 7 d, open vial
[14] = 40° C./75% RH, t = 14 d, open vial

- appearance after exposure [1]: remained a flowable, white powder
- Hygroscopicity [2]: Hygroscopic
- weight increase [2]: 2.8%
Structure (SMILES): C[C@@H]1COCCN1c1cc([C@]2(O)C[C@H]3CC[C@@H](C2)O3)c2cnn(-c3cc[nH]n3)c2n1 [Crystalline sulfate form A]
- solid-form stability (XRPD) [1]: changed to a mixture of crystalline sulfate form A+another crystalline form of a sulfate salt

- Hygroscopicity by DVS [3]: slightly hygroscopic
- solubility ([4]; water, 25 °C, water, thermodynamic from solid, water, 25° C., read-out: water solubility): ~50 µg/mL (≈ 122 µM)
Structure (SMILES): C[C@@H]1COCCN1c1cc([C@]2(O)C[C@H]3CC[C@@H](C2)O3)c2cnn(-c3cc[nH]n3)c2n1 [Crystalline form C]
- form change by XRPD after DVS [3]: XRPD pattern changed after DVS compared to the starting material and matched with crystalline form J
- Hygroscopicity [3]: Slightly hygroscopic (e.g., ≥0.2% and <2% weight (Slightly hygroscopic (e.g., ≥0.2% and <2% weight increase at 80% RH, 25° C.))

- aqueous solubility (qualitative) [5]: very low
- form change ([5]; 0.5% methylcellulose (400 cps)/0.02% sodium lauryl sulfate, room temperature, 7 days, PLM and XRPD): No form change
- Hygroscopicity by DVS [3]: non hygroscopic
- form change by XRPD after DVS [3]: no form change
- water solubility ([4]; water, 25° C.): about 0.046 mg/mL
- solubility ([4]; water, 25° C., label = starting material, measured on the form named in the XRPD Pattern column): 46 µg/mL (≈ 112 µM)
- form after suspension in water (microscopic images) ([4]; water): unchanged
- XRPD of the samples after exposure vs t=0 [1]: matched with the starting materials
- DSC [1, 8]: No change
- HPLC [1, 8]: 99.94%
- TG weight loss by 170° C. [1, 8]: 4.2 wt % loss
- XRPD [1, 8]: No change
- DSC [1, 9]: No change
- HPLC [1, 9]: 99.925%
- TG weight loss by 170° C. [1, 9]: 4.2 wt % loss
- XRPD [1, 9]: No change
- DSC [1, 10]: No change
- HPLC [1, 10]: 100%
- TG weight loss by 170° C. [1, 10]: 4.2 wt % loss
- XRPD [1, 10]: No change
- DSC [1, 11]: No change
- HPLC [1, 11]: 99.94%
- TG weight loss by 170° C. [1, 11]: 4.2 wt % loss
- XRPD [1, 11]: No change
- DSC [1, 12]: No change
- HPLC [1, 12]: 99.94%
- TG weight loss by 170° C. [1, 12]: 4.2 wt % loss
- XRPD [1, 12]: No change
- DSC [1, 13]: No change
- HPLC [1, 13]: 99.922%
- TG weight loss by 170° C. [1, 13]: 4.2 wt % loss
- XRPD [1, 13]: No change
- DSC [1, 14]: No change
- HPLC [1, 14]: 100%
- TG weight loss by 170° C. [1, 14]: 4.2 wt % loss
- XRPD [1, 14]: No change
- HPLC ([1]; t = 0): 99.903%
- TG weight loss by 170° C. ([1]; t = 0): 4.7 wt % loss by
Structure (SMILES): C[C@@H]1COCCN1c1cc([C@]2(O)C[C@H]3CC[C@@H](C2)O3)c2cnn(-c3cc[nH]n3)c2n1 [Crystalline form F]
- Hygroscopicity [3]: Non hygroscopic (e.g., <0.2% weight increase at (Non hygroscopic (e.g., <0.2% weight increase at 80% RH, 25° C.))
- XRPD Pattern (solubility measured on); form in water ([4]; 25° C.): remained unchanged; also recorded: Crystalline form F

- Hygroscopicity by DVS [3]: slightly hygroscopic
- form change by XRPD after DVS [3]: did not change
- XRPD Pattern (solubility measured on); form in water ([4]; 25° C.): converted to crystalline form C
- solubility ([4]; water, 25 °C, water, thermodynamic from solid, water, 25° C., label = starting material, measured on the form named in the XRPD Pattern column, read-out: Solubility): 50 µg/mL (≈ 122 µM)
- form after suspension in water (microscopic images) ([4]; water): converted to crystalline form C
Structure (SMILES): C[C@@H]1COCCN1c1cc([C@]2(O)C[C@H]3CC[C@@H](C2)O3)c2cnn(-c3cc[nH]n3)c2n1 [Crystalline form B]
- Hygroscopicity [3]: Slightly hygroscopic (e.g., ≥0.2% and <2% (Slightly hygroscopic (e.g., ≥0.2% and <2% weight increase at 80% RH, 25° C.))

- HPLC purity of solution ([6]; 0.1 mg/mL, stir, Day 3, MC/SLS with 50 mM citrate buffer (pH 4.5)): 99.82%
- HPLC purity of solution ([6]; 0.1 mg/mL, stir, Day 7, MC/SLS with 50 mM citrate buffer (pH 4.5)): 99.93%
- HPLC purity of solution ([6]; 0.1 mg/mL, w/o stir, Day 3, MC/SLS with 50 mM citrate buffer (pH 4.5)): 99.82%
- HPLC purity of solution ([6]; 0.2 mg/mL, stir, Day 3, MC/SLS with 50 mM citrate buffer (pH 4.5)): 99.89%
- HPLC purity of solution ([6]; 0.2 mg/mL, stir, Day 7, MC/SLS with 50 mM citrate buffer (pH 4.5)): 99.86%
- HPLC purity of solution ([6]; 0.2 mg/mL, w/o stir, Day 3, MC/SLS with 50 mM citrate buffer (pH 4.5)): 99.89%
- HPLC purity of solution ([6]; 0.5 mg/mL, stir, Day 3, MC/SLS with 50 mM citrate buffer (pH 4.5)): 99.91%
- HPLC purity of solution ([6]; 0.5 mg/mL, stir, Day 7, MC/SLS with 50 mM citrate buffer (pH 4.5)): 99.87%
- HPLC purity of solution ([6]; 0.5 mg/mL, w/o stir, Day 3, MC/SLS with 50 mM citrate buffer (pH 4.5)): 99.91%
- HPLC purity of solution ([6]; 1 mg/mL, stir, Day 3, MC/SLS with 50 mM citrate buffer (pH 4.5)): 99.93%
- HPLC purity of solution ([6]; 1 mg/mL, stir, Day 7, MC/SLS with 50 mM citrate buffer (pH 4.5)): 99.94%
- HPLC purity of solution ([6]; 1 mg/mL, w/o stir, Day 3, MC/SLS with 50 mM citrate buffer (pH 4.5)): 99.89%
- purity of the solutions (HPLC) ([6]; 0.1-1 mg/mL, with and without stirring, 3 and 7 days, citrate buffer pH 4.5): 99.8-99.9%
- moisture uptake [3]: 1.42%
- Hygroscopicity by DVS [3]: slightly hygroscopic
- form change by XRPD after DVS [3]: No form change
- XRPD of the samples after exposure vs t=0 [1]: matched with the starting materials
- HPLC ([1]; 25° C./60% RH, t = 4 weeks, closed vial): 99.92%
- HPLC [1, 8]: 99.91%
- HPLC ([1]; 25° C./60% RH, t = 7 d, closed vial): 99.936%
- HPLC [1, 9]: 99.937%
- HPLC ([1]; 25° C./60% RH, t = 14 d, closed vial): 100%
- HPLC [1, 10]: 99.944%
- HPLC [1, 11]: 99.92%
- HPLC [1, 12]: 99.91%
- HPLC ([1]; 40° C./75% RH, t = 7 d, closed vial): 99.938%
- HPLC [1, 13]: 99.938%
- HPLC ([1]; 40° C./75% RH, t = 14 d, closed vial): 100%
- HPLC [1, 14]: 100%
- HPLC ([1]; t = 0, baseline before storage): 99.902%
Structure (SMILES): C[C@@H]1COCCN1c1cc([C@]2(O)C[C@H]3CC[C@@H](C2)O3)c2cnn(-c3cc[nH]n3)c2n1 [Crystalline hydrogen sulfate form A]
- form assessment (precipitate, XRPD) ([6]; 1 mg/ml in buffered MC/SLS, stirred at 500 rpm, room temperature, monitored every hour): After 4 hours, crystalline form C was observed; also recorded: Precipitation of the free form, crystalline form C was observed after 3 hours
- Hygroscopicity [3]: Slightly hygroscopic (e.g., ≥0.2% and <2% weight (Slightly hygroscopic (e.g., ≥0.2% and <2% weight increase at 80% RH, 25° C.))

- moisture uptake [3]: 15.75%
- Hygroscopicity by DVS [3]: hygroscopic
- appearance after exposure [1]: remained a flowable, white powder
- solid-form stability (XRPD) [1]: no significant changes
Structure (SMILES): C[C@@H]1COCCN1c1cc([C@]2(O)C[C@H]3CC[C@@H](C2)O3)c2cnn(-c3cc[nH]n3)c2n1 [Crystalline hydrogen sulfate form B]
- Hygroscopicity [3]: Hygroscopic (e.g., ≥2% and <15% weight increase (Hygroscopic (e.g., ≥2% and <15% weight increase at 80% RH, 25° C.))
- resulting solid form (XRPD) [7]: convert to crystalline form C; also recorded: The resulting solids were determined to be the free form, crystalline form C as confirmed by XRPD (FIG. 38)
